The values that follow come from patent US20160208002A1, “Compositions Associated with and Methods of Managing Neutrophil Movement” (priority 2013, published 2016).

For the assay, the system named is human neutrophils. Description: human neutrophil adhesion to human fibronectin after TNF-α. The class given is cell-based. The following applies: 3 microgram/ml compound, 30 minutes, fibronectin-coated plate, FIG. 2. The text has this:
Human blood was collected into EDTA tubes (BD Bioscience, San Jose, Calif.) from adult volunteers who gave written consent and with specific approval from the Texas A&M University human subjects Institutional Review Board. Neutrophils were then isolated from the blood using Lympholyte-poly (Cedarlane Laboratories, Hornby, BC, Canada) following the manufacturer's protocol and resuspended in 2% bovine serum albumen (BSA) (fraction V, A3059; Sigma-Aldrich) in RPMI 1640 medium (Lonza, Allendale, N.J.). 96-well tissue culture plates (flat-bottom polystyrene, BD Bioscience) were pre-coated with 20 μg/ml of human plasma fibronectin (Trevigen, Gaithersburg, Md.) in phosphate buffered saline (PBS) for 30 minutes at 37° C. and then blocked with 2% BSA in RPMI for 1 hour at 37° C. 50 microliters of 5×10^5 cells/ml neutrophils were incubated with 3 microgram/ml (0.5 microliters of the stock solution) of compound 1 or 3 for 30 minutes at 37° C. in a 1.5 ml Eppendorf tube (Eppendorf, Hauppauge, N.Y.). When testing the effect of CD209 antibodies on neutrophil adhesion to human fibronectin, anti-human CD209 antibodies clone DCN46 (BD Biosciences, San Jose, Calif.), eB-h209 (eBioscience, San Jose, Calif.), H-200 (Santa Cruz Biotechnology, Dallas, Tex.), ab89186 (Abcam, Cambridge, Mass.), or 9E9A8 (Biolegend Inc, San Diego, Calif.) were incubated with neutrophils at a concentration of 1 microgram/ml (0.2 microliters of the stock solution) or the concentration indicated on the figure. Rat IgG2a was used as an isotype control for the anti-human CD209 antibody clone eB-h209. Mouse IgG2b was used as an isotype control for the anti-human CD209 antibody clone DCN46. Mouse IgG1 was used as an isotype control for the anti-human CD209 antibody clone 9E9A8. Rabbit IgG was used as an isotype control for the two rabbit anti-human CD209 antibodies clone H-200 and ab89186. […] After removing the media and washing the plates 3 times with PBS, the plates were air-dried, fixed, stained, and the number of neutrophils that remained in the wells was counted. […]

As to `CCC(=O)Nc1nc(C)c(-c2csc(Nc3ccc(N(C)C)cc3)n2)s1` [Compound 1], the “neutrophil adhesion compared to the TNF-α control” value is given as “significantly reduced neutrophil adhesion”.
